According to publication PMC13619035 (British Journal of Clinical Pharmacology, 2026):

Assay: Single-dose pharmacokinetic study in healthy volunteers, plasma concentrations by LC-MS/MS
Format: in vivo, human
Conditions: single oral dose of 20 mg pantoprazole or 10 mg omeprazole, 20 healthy volunteers, fasted
Procedure: An open label, randomized, single‐dose pharmacokinetic study in healthy volunteers was conducted in cross‐over design.
The subjects presented to the study facilities fasted in the morning. Three hours after drug intake the subjects received a meal on both study days. […] Venous blood samples (7 mL each) were drawn into EDTA‐containing tubes. Blood samples were centrifuged immediately after blood sampling for 10 min at 2000g to generate blood plasma. Blood plasma was aliquoted and stored at −32 °C until analysis.
Probe drugs and metabolite concentrations were determined using a liquid‐chromatography tandem mass spectrometer (LC–MS/MS) system consisting of an Agilent 1290 Infinity II UHPLC coupled to a Sciex QTRAP6500 + triple quadrupole mass spectrometer.
The total chromatographic method length was increased from 8.5 to 8.8 min. […] Samples were vortexed for 10 s and centrifuged for 20 min at 17.000 x g and 4 °C. A total of 40 μl supernatant were diluted with 40 μl LC grade water, vortexed briefly and centrifuged again for 5 min at 17.000 x g and 4 °C.
The samples were vortexed for 10 s and centrifuged for 20 min at 4 °C and 17.000 x g. […]
The AUC0‐8h metabolic ratios (MR) were calculated as follows: AUC0‐8h MR = AUC0‐8h, metabolite/AUC0‐8h, substrate. […] Statistical significance was assessed using non‐parametric Kruskal‐Wallis test with Dunn's post hoc test. […]

Q: With COc1ccnc(C[S+]([O-])c2nc3ccc(OC(F)F)cc3[nH]2)c1OC (stereo not shown) [pantoprazole] as the compound, how does the tmax read?
A: Its tmax is 2 h.
